Values joined by “and” are separate entries in the source; they are usually repeats but may differ in a detail not shown here. Identical values can stand only once.
Legend:
Type in all cases: binding
[1] = molecular target: T1, recombinant CREBBP bromodomain (Homo sapiens, UniProt Q92793); assay: CBP TR-FRET displacement assay; conditions: for IC50: dose-response, read-out: IC50 (group A, B, C); for inhibition at 10 µM: compound at 10 μM
T1 construct: recombinant CREBBP bromodomain obtained from BPS Bioscience, USA; purchased BPS Bioscience, USA
Outline: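 CREBBP bromodomain (50 nM) preincubated 30 min at room temperature with 500 nM biotinylated ligand in HEPES pH 7.5 buffer with TCEP, then 60 min with compound. Eu-anti-His/APC-streptavidin TR-FRET 665/615 nm ratio read; IC50 from sigmoidal dose-response fit.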

[2] = molecular target: T2, recombinant P300 bromodomain (Homo sapiens, UniProt Q09472); assay: P300 TR-FRET displacement assay; conditions: dose-response, read-out: IC50 (group A, B, C)
T2 construct: recombinant P300 bromodomain obtained from BPS Bioscience, USA; purchased BPS Bioscience, USA
T2 sequence (Q09472 1049-1156 limits assumed): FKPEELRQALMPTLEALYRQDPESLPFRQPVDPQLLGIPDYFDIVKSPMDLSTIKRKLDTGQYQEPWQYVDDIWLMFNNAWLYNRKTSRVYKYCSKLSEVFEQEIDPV
Description: The potency of compounds to inhibit P300 enzyme was tested in a TR-FRET displacement assay using recombinant P300 bromodomain obtained from BPS Bioscience, USA. The assay buffer was 50 mM HEPES (pH 7.5), 50 mM NaCl, 0.008% Brij 35, 0.01% BSA, 1 mM TCEP. 50 nM of P300 & 500 nM of Biotinylated ligand was incubated at room temperature for 30 minutes, the reaction was initiated by adding the pre-incubated enzyme ligand mixture to the test compounds. After 60 min incubation, the reaction was stopped by the addition of stop mix containing 1 nM of LANCE Europium-anti-6xHis antibody (Perkin Elmer, USA) and 40 nM of Sure Light Allophycocyanin-Streptavidin (Perkin Elmer, USA). Fluorescence emission of the samples at 665 and 615 nm were measured at an excitation of 340 nm and their ratio was plotted against the compound concentrations to generate dose-response curve.
(§1) Selected compounds of the present invention were screened in the above-mentioned assay procedures and IC50 values were determined by fitting the dose-response data to sigmoidal curve fitting equation using Graph pad prism software V7.

[3] = molecular target: T3, recombinant BRD4 FL bromodomain (Homo sapiens, UniProt O60885); assay: BRD4 FL TR-FRET displacement assay; conditions: BRD4 FL; for IC50: dose-response, read-out: IC50 (group A, B, C); for inhibition at 10 µM: compound at 10 μM, read-out: % Inhibition (10 μM)
T3 construct: fused on or other part: 6xHis tag, inferred from detection with Mab ANTI 6HIS-XL665
Description: The potency of compounds to inhibit BRD4 FL enzyme was tested in a TR-FRET displacement assay using recombinant BRD4 FL bromodomain obtained In-house. The assay buffer was 50 mM HEPES (pH 7.5), 50 mM NaCl, 500 μM CHAPS. 10 nM of BRD4 FL & 300 nM of Biotinylated Acetyl histone H4 (Lys 5, 8, 12, 16) (Millipore, USA) was incubated at room temperature for 30 minutes, the reaction was initiated by adding the pre-incubated enzyme ligand mixture to the test compounds. After 30 min incubation, the reaction was stopped by the addition of stop mix containing 1 nM of Europium Streptavidin cryptate (Cisbio, USA) and 5 nM of Mab ANTI 6HIS-XL665 (Cisbio, USA) dilutes in assay buffer containing 2.4M Potassium Fluoride. Fluorescence emission of the samples at 665 and 615 nm were measured at an excitation of 340 nm and their ratio was plotted against the compound concentrations to generate dose-response curve. The percent inhibition of the test compounds is calculated using the ratio of enzyme activity controls.
as §1

T1 sequence (Q92793 1085-1192 limits assumed): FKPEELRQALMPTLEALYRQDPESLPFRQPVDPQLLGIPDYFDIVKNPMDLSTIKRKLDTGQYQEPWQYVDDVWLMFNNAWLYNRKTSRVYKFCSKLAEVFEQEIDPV

| IC50 [1] | IC50 [2] [nM] | inhibition at 10 µM [1] [%] | IC50 [3] [nM] | inhibition at 10 µM [3] [%] | SMILES |
| --- | --- | --- | --- | --- | --- |
| < 50 nM and 51 to 100 nM | > 50000 |  |  |  | Cc1cc2c(N3CCN(C)c4cc(-c5cnn(C)c5)ncc43)cc(N3CCOCC3)cc2n(C)c1=O [Example 134] |
| > 10 nM | > 50000 |  |  |  | Cc1cc2c(N3CCN(C)c4cc(-c5cnn(C)c5)c(C#N)cc43)cc(OCC(=O)OC(C)(C)C)cc2n(C)c1=O [Example 3, Tert-butyl 2-((5-(7-cyano-4-methyl-6-(1-methyl-1H-pyrazol-4-yl)-3,4-dihydroquinoxalin-1(2H)-yl)-1,3-dimethyl-2-oxo-1,2-dihydroquinolin-7-yl)oxy)acetate] |
| < 50 nM | < 25 | 96 |  |  | Cc1cc2c(N3CCN(C)c4cc(-c5cnn(C)c5)c(C#N)cc43)cc(OCC3CCCN(C)C3)cc2n(C)c1=O (stereo not shown) [Example 35] |
| < 50 nM | < 25 |  |  |  | COc1cc(N2CCN(C)c3cc(N4CCN(C(C)=O)CC4)c(C#N)cc32)c2cc(C)c(=O)n(C)c2c1 [Example 23] |
| < 50 nM | < 25 |  |  |  | COc1cc(N2CCN(C)c3cc(-c4cnn(C)c4)c(S(=O)(=O)NC(C)=O)cc32)c2cc(C)c(=O)n(C)c2c1 [Example 108] |
| > 10 nM | > 50000 |  |  |  | COc1cc(N2CCN(C)c3ccc(-c4cnn(C)c4)cc32)c2cc(C)c(=O)n(C)c2c1 [Example 80] |
| < 50 nM | < 25 |  |  |  | COc1cc(N2CC(C)N(C)c3cc(-c4cnn(C)c4)c(C#N)cc32)c2cc(C)c(=O)n(C)c2c1 (stereo not shown) [Example 13] |
| < 50 nM | < 25 |  |  |  | COc1cc(N2CCN(C)c3cc(-c4ccn(C)n4)c(C#N)cc32)c2cc(C)c(=O)n(C)c2c1 [Example 14] |
| < 50 nM |  |  | 2010 to 5000 |  | CCOC(=O)CN1CCN(c2cc(OC)cc3c2cc(C)c(=O)n3C)c2cc(C#N)c(-c3cnn(C)c3)cc21 [Example 66, Ethyl 2-(6-cyano-4-(7-methoxy-1,3-dimethyl-2-oxo-1,2-dihydroquinolin-5-yl)-7-(1-methyl-1H-pyrazol-4-yl)-3,4-dihydroquinoxalin-1(2H)-yl)acetate] |
| < 50 nM |  |  | 2010 to 5000 |  | CONC(=O)COc1cc(N2CCN(C)c3cc(-c4cnn(C)c4)ccc32)c2cc(C)c(=O)n(C)c2c1 [Example 73, 2-((1,3-Dimethyl-5-(4-methyl-6-(1-methyl-1H-pyrazol-4-yl)-3,4-dihydroquinoxalin-1(2H)-yl)-2-oxo-1,2-dihydroquinolin-7-yl)oxy)-N-methoxyacetamide] |
| 51 to 100 nM |  |  |  | 48 | Cc1cc2c(N3CCN(C)c4cc(-c5cnn(C)c5)ncc43)cc(C3CCCCC3)cc2n(C)c1=O [Example 152] |
| 51 to 100 nM |  |  | 2010 to 5000 |  | CNC(=O)C1CN(c2cc3c(cc2C#N)N(c2cc(OC)cc4c2cc(C)c(=O)n4C)CCN3C)C1 [Example 27] |
| < 50 nM |  |  |  | 32 | COc1cc(N2CCN(C)c3cc(-c4cnn(C)c4)nc(C)c32)c2cc(C)c(=O)n(C)c2c1 [Example 127] |
| 51 to 100 nM |  |  |  | 41 | Cc1cc2c(N3CCN(C)c4cc(-c5cnn(C)c5)ncc43)cc(OC3CCOC3)cc2n(C)c1=O (stereo not shown) [Example 157] |

The next lines start with the molecule.

| SMILES | IC50 [1] | IC50 [2] [nM] | inhibition at 10 µM [1] [%] | IC50 [3] [nM] | inhibition at 10 µM [3] [%] |
| --- | --- | --- | --- | --- | --- |
| Cc1cc2c(N3CCCc4cc(-c5cnn(C)c5)c(C(F)F)cc43)nc(N3CCC4(COC4)C3)cc2n(C)c1=O [Example 225] | < 50 nM | 25 to 50 |  |  |  |
| Cc1cc2c(N3CCCc4cc(-c5cnn(C)c5)c(C(F)F)cc43)nc(C3CCOCC3)cc2n(C)c1=O [Example 242, 5-(7-(Difluoromethyl)-6-(1-methyl-1H-pyrazol-4-yl)-3,4-dihydroquinolin-1(2H)-yl)-1,3-dimethyl-7-(tetrahydro-2H-pyran-4-yl)-1,6-naphthyridin-2(1H)-one] | < 50 nM | < 25 |  |  |  |
| Cc1cc2c(N3CCCc4cc(-c5cnn(C)c5)c(C(F)F)cc43)nc(N3CC4(COC4)C3)cc2n(C)c1=O [Example 224] | < 50 nM | > 50000 |  |  |  |
| Cc1cc2c(N3CCCc4cc(-c5cnn(C)c5)c(C(F)F)cc43)nc(N3C[C@@H](O)[C@H](O)C3)cc2n(C)c1=O [Example 215] | < 50 nM | < 25 |  |  |  |
| Cc1ccc2[nH]c(=O)c(C)cc2c1N1CCN(C)c2cc(-c3cnn(C)c3)c(C#N)cc21 [Example 38] | < 50 nM | > 50000 | 98 |  |  |
| CNC(=O)c1ccc(-c2cc3c(cc2C(F)F)N(c2cccc4c2cc(C)c(=O)n4C)CCC3)cn1 [Example 176] | < 50 nM | < 25 |  |  |  |
| COc1cc(N2CCc3cc(-c4cnn(C)c4)c(C(F)F)cc32)c2cc(C)c(=O)n(C)c2c1 [Example 195, 5-(6-(Difluoromethyl)-5-(1-methyl-1H-pyrazol-4-yl)indolin-1-yl)-7-methoxy-1,3-dimethylquinolin-2(1H)-one] | < 50 nM | 25 to 50 |  |  |  |
| COc1cc(N2CCCc3cc(N4CCN(C(C)=O)CC4)ncc32)c2cc(C)c(=O)n(C)c2c1 [Example 166, 5-(6-(4-Acetylpiperazin-1-yl)-3,4-dihydro-1,7-naphthyridin-1(2H)-yl)-7-methoxy-1,3-dimethylquinolin-2(1H)-one] | 51 to 100 nM |  |  | 2010 to 5000 |  |
| Cc1cc2c(N3CCN(C)c4cc(F)c(S(N)(=O)=O)cc43)cc(N3CCOCC3)cc2n(C)c1=O [Example 88] | < 50 nM |  |  | 2010 to 5000 |  |
| CNC(=O)C1CCN(c2cc3c(cc(C)c(=O)n3C)c(N3CCN(C)c4cc(-c5cnn(C)c5)ncc43)n2)C1 (stereo not shown) [Example 205] | 51 to 100 nM |  |  |  | 43 |
| Cc1cc2c(N3CCCc4cc(-c5cnn(C)c5)c(C(F)F)cc43)nc(N3CC4CCC(C3)O4)cc2n(C)c1=O [Example 217] | < 50 nM |  |  |  | 46 |
| Cc1cc2c(N3CCCc4cc(-c5nnn(C)n5)c(C(F)F)cc43)nc(N3CCOCC3)cc2n(C)c1=O [Example 226] | 51 to 100 nM |  |  | 2010 to 5000 |  |
| Cc1cc2c(N3CCN(C)c4cc(-c5cnn(C)c5)ncc43)nc(N3CC4(COC4)C3)cc2n(C)c1=O [Example 220] | > 10 nM |  |  | 2010 to 5000 |  |
| Cc1cc2c(N3CCN(C)c4cc(F)c(S(N)(=O)=O)cc43)cccc2n(C)c1=O [Example 87] | 51 to 100 nM |  |  | 2010 to 5000 |  |
| Cc1cc2c(N3CCN(CC(=O)O)c4cc(-c5cnn(C)c5)ncc43)cc(N3CCOCC3)cc2n(C)c1=O [Example 164, 2-(4-(1,3-Dimethyl-7-morpholino-2-oxo-1,2-dihydroquinolin-5-yl)-7-(1-methyl-1H-pyrazol-4-yl)-3,4-dihydropyrido[3,4-b]pyrazin-1(2H)-yl)acetic acid] | 51 to 100 nM |  |  |  | 38 |
| COc1cc(N2CCN(C)c3ccc(S(=O)(=O)NC(C)=O)cc32)c2cc(C)c(=O)n(C)c2c1 [Example 98] | < 50 nM |  |  |  | 56 |
| Cc1cc2c(N3CCN(C)c4ccc(S(N)(=O)=O)cc43)cccc2n(C)c1=O [Example 85, 4-(1,3-dimethyl-2-oxo-1,2-dihydroquinolin-5-yl)-1-methyl-1,2,3,4-tetrahydroquinoxaline-6-sulfonamide] | 51 to 100 nM |  |  | 2010 to 5000 |  |
| CC(=O)NS(=O)(=O)c1cc2c(cc1-c1cnn(C)c1)N(C)CCN2c1cccc2c1cc(C)c(=O)n2C [Example 112] | < 50 nM |  |  |  | 44 |
| CC(=O)NS(=O)(=O)c1ccc2c(c1)N(c1cccc3c1cc(C)c(=O)n3C)CCN2C [Example 103, N-((4-(1,3-dimethyl-2-oxo-1,2-dihydroquinolin-5-yl)-1-methyl-1,2,3,4-tetrahydroquinoxalin-6-yl)sulfonyl)acetamide] | > 10 nM |  |  |  | 36 |
| CC1Cc2c(cc(N3CC[C@@H](O)C3)cc2N2CCCc3cc(-c4cnn(C)c4)c(C(F)F)cc32)N(C)C1=O (stereo partly drawn) [Example 193, 7-(Difluoromethyl)-7′-((R)-3-hydroxypyrrolidin-1-yl)-1′,3′-dimethyl-6-(1-methyl-1H-pyrazol-4-yl)-3,3′,4,4′-tetrahydro-2H-[1,5′-biquinolin]-2′(1′H)-one] | > 10 nM |  |  | 2010 to 5000 |  |

From patent US20230322724A1, “HETEROCYCLIC COMPOUNDS AS CBP/EP300 BROMODOMAIN INHIBITORS” (AURIGENE ONCOLOGY LIMITED, priority 2020, published 2023)
